{"source": "paper PMC6048268", "about": "“Resveratrol Inhibits Key Steps of Steroid Metabolism in a Human Estrogen-Receptor Positive Breast Cancer Model: Impact on Cellular Proliferation” (Frontiers in Pharmacology, 2018)", "key": {"[1]": {"target": "estrogen sulfation, S9 fractions from human jejunum", "set-up": "method as in Furimsky et al. (2008)", "conditions": "ref Furimsky et al. (2008), read-out: Ki, inhibition of estrogen sulfation; cited from earlier work"}, "MDA-MB-231 cells": {"system": "MDA-MB-231 cells", "test": "Cell proliferation, Casy cell counting, MDA-MB-231", "format": "cell-based, human", "method": "MDA-MB-231 and MCF-7 breast cancer cells were purchased from the American Type Culture Collection (ATCC; Manassas, VA, United States) and routinely cultivated at 37°C (95% humidity and 5% CO2) in phenolred-free Dulbecco’s modified Eagle medium F-12 (DMEM/F-12), fortified with 1% PenStrep®-solution and 10% fetal bovine serum (Invitrogen; Thermo Fisher Scientific, Inc., Waltham, MA, United States). All experiments were performed during the exponential growth phase of both cell lines. For the experiments, cells were seeded in 6-well-plates at a density of 1.0 × 10^6 cells per well and allowed to attach for 24 h.\nPrior to cell counting with a Casy® TT Cell Counter (OLS OMNI Life Science, Bremen, Germany), the supernatant medium was removed and cells were detached using 400 μl TrypLe® solution (Invitrogen). All experiments were performed in triplicate, and the data were reported as the means ± standard deviation of all values."}, "[2]": {"system": "steroid metabolism in MCF-7 cells", "test": "Inhibition of steroid metabolism by RES in MCF-7 cells (LC–HRMS)", "conditions": "for inhibition at 10 µM: Homo sapiens, MCF7, 48 h; for Ki: MCF-7, Dixon plot", "method": "(§1) Briefly, cartridges were preconditioned with 2 × 1.0 ml acetonitrile and 3 × 1.0 ml ammonium acetate buffer (10 mM, pH = 5.0), and the samples were loaded onto the columns. After washing with 1 × 1.0 ml ammonium acetate buffer (10 mM, pH = 5.0) and 2 × 1.0 ml acetonitrile/ammonium acetate buffer (10 mM, pH 5.0) 10:90 (v/v), the analytes were eluted using 2 × 650 μl acetonitrile/ammonium acetate buffer (10 mM, pH = 5.0) 95:5 (v/v) and evaporated until dry. Subsequently, samples were reconstituted in 270 μl acetonitrile/ammonium acetate buffer (10 mM, pH = 5.0) 25:75 (v/v) and stored at -80°C until further LC–HRMS analysis.\nAfter media collection, cell monolayers were washed five times with 2.0 ml DPBS, detached using 400 μl TrypLE® solution (37°C, 5 min), mixed with 600 μl DPBS and transferred into sample vials. Aliquots of these suspensions (100 μl each) were diluted and counted using the Casy® TT Cell Counter to determine the exact number of cells per sample well. The remaining cell suspensions (900 μl each) were gently centrifuged (1000 rpm, 8 min), and the supernatants were discarded. The cell pellets were subsequently resuspended in 100 μl aqueous ammonium acetate buffer (10 mM, pH = 5.0) and lysed by five freeze-thaw-cycles in liquid nitrogen (3 min each), followed by thawing at ambient temperature. Ammonium acetate buffer (1000 μl) was added, and the suspensions were centrifuged (14000 rpm, 5 min). Subsequently, the supernatants were concentrated using the same SPE protocol as described above. All processed samples were then stored at -80°C until further LC–HRMS analysis. For each condition, three biologically independent experiments were performed; the reported values represent the overall means ± SD of all values.\nLC was performed with an UltiMate 3000 RSLC-series system coupled to a maXis HD ESI-Qq-TOF mass spectrometer (Bruker Corporation, Bremen, Germany). A Phenomenex Luna® 3 μm C18(2) 100 Å LC column (250 mm × 4.6 mm I.D.; Phenomenex, Inc., Torrance, CA, United States), preceded by a Hypersil® BDS-C18 guard column (5 μm, 10 mm × 4.6 mm I.D.; Thermo Fisher Scientific, Inc.) was used for the separation of the analytes at a flow rate of 1.0 ml/min and a temperature of 43°C. […] The ESI ion source settings were as follows: capillary voltage: -4.5 kV; dry gas flow rate: 8.0 l/min N2; nebulizer: 1.0 bar N2; and dry temperature: 200°C. The ion transfer parameters were set to 400 Vpp funnel RF and 300 Vpp multipole RF, the quadrupole ion energy was 8.0 eV, and the collision cell parameters were as follows: collision RF, 1100 Vpp; collision energy, 10.0 eV; transfer time, 38 μs; and pre-pulse storage, 18 μs. In the range of m/z 150–500, full-scan mass spectra were recorded.\n(§2) The modes of inhibition were subsequently determined from Lineweaver–Burk plots, and the corresponding Ki values were calculated from Dixon plots using GraphPad Prism 6.0."}, "[3]": {"system": "steroid metabolism in MDA-MB-231 cells", "test": "Inhibition of steroid metabolism by RES in MDA-MB-231 cells (LC–HRMS)", "format": "cell-based, human", "conditions": "MDA-MB-231, 100 μM RES, 100 nM DHEA or E1, 48 h", "method": "as §1\nAfter media collection, cell monolayers were washed five times with 2.0 ml DPBS, detached using 400 μl TrypLE® solution (37°C, 5 min), mixed with 600 μl DPBS and transferred into sample vials. Aliquots of these suspensions (100 μl each) were diluted and counted using the Casy® TT Cell Counter to determine the exact number of cells per sample well. […]\nLC was performed with an UltiMate 3000 RSLC-series system coupled to a maXis HD ESI-Qq-TOF mass spectrometer (Bruker Corporation, Bremen, Germany). […] In the range of m/z 150–500, full-scan mass spectra were recorded.\nas §2"}, "[4]": {"conditions": "MCF-7, 100 μM RES, 100 nM DHEA, 48 h"}, "[5]": {"conditions": "MCF-7, 100 μM RES, 100 nM E1, 48 h"}}, "note": "Where two headings read alike, the source gives them in different places.", "data": [{"smiles": "Oc1ccc(/C=C/c2cc(O)cc(O)c2)cc1", "note": "[RES, 3,5,4′-trihydroxy-trans-stilbene]", "values": [{"measurement": "Ki", "setting": "[1]", "value": 0.6, "unit": "µM"}, {"measurement": "number of viable cells", "setting": "MDA-MB-231 cells; 2.5 μM RES, 48 h, seeded 1.0 × 10^6", "value": "2.03 ± 0.16 × 10^6 cells"}, {"measurement": "reduction of number of viable cells", "setting": "MDA-MB-231 cells; 100 μM RES, 48 h", "value": "68.6 ± 4.7", "unit": "%"}, {"measurement": "IC50", "setting": "MDA-MB-231 cells; Homo sapiens, MDA-MB-231, 48 h, steroid-deprived, read-out: IC50 (inhibition of cell growth)", "value": "15.1 ± 4.9", "unit": "µM"}, {"measurement": "effect of simultaneous incubation with RES and E1 on cell proliferation", "setting": "MDA-MB-231 cells; RES 0–100 μM with E1, 48 h", "value": "no observable effect"}, {"measurement": "inhibition at 10 µM", "setting": "[2]; read-out: inhibition of E1 sulfation", "value": "91.6 ± 1.1", "unit": "%"}, {"measurement": "inhibition at 10 µM", "setting": "[2]; read-out: inhibition of E2 sulfation", "value": "90 ± 1", "unit": "%"}, {"measurement": "increase in AD concentrations", "setting": "[2]; [4]", "value": 141.0, "unit": "%"}, {"measurement": "increase in T levels", "setting": "[2]; [4]", "value": 305.9, "unit": "%"}, {"measurement": "reduction of mean formation of DHEA-S", "setting": "[2]; [4]", "value": 87.7, "unit": "%"}, {"measurement": "increase in unconjugated E2 concentrations", "setting": "[2]; [5]", "value": 101.6, "unit": "%"}, {"measurement": "reduction of mean formation of E1-S", "setting": "[2]; [5]", "value": 99.1, "unit": "%"}, {"measurement": "reduction of mean formation of E2-G", "setting": "[2]; [5]", "value": 89.7, "unit": "%"}, {"measurement": "reduction of mean formation of E2-S", "setting": "[2]; [5]", "value": 98.8, "unit": "%"}, {"measurement": "mode of inhibition of conjugate formation", "setting": "[2]; MCF-7, Lineweaver–Burk and Dixon plots, all conjugates", "value": "non-competitive"}, {"measurement": "Ki", "setting": "[2]; read-out: Ki, inhibition of DHEA-S formation, DHEA precursor", "value": "13.2 ± 0.2", "unit": "µM"}, {"measurement": "Ki", "setting": "[2]; read-out: Ki, inhibition of E1-S formation, E1 precursor", "value": "0.94 ± 0.03", "unit": "µM"}, {"measurement": "Ki", "setting": "[2]; read-out: Ki, inhibition of E2-G formation, E1 precursor", "value": "7.92 ± 0.24", "unit": "µM"}, {"measurement": "Ki", "setting": "[2]; read-out: Ki, inhibition of E2-S formation, E1 precursor", "value": "0.73 ± 0.07", "unit": "µM"}, {"measurement": "effect on formation of DHEA-S, E1-S, E2-S and E2-G", "setting": "[3]", "value": "did not affect"}, {"measurement": "effect on formation of unconjugated AD, T and E2", "setting": "[3]", "value": "no significant influence"}]}]}
